Measured values from article PMC7473970, “Preformulation Studies of a Stable PTEN-PDZ Lipopeptide Able to Cross an In Vitro Blood-Brain-Barrier Model as a Potential Therapy for Alzheimer’s Disease” (Pharmaceutical Research, 2020).
Like-named read-outs stand apart in the source and are kept apart here. Residues, ends and D or L forms follow the SMILES beside them.

What was measured:
[1] = In vitro stability in simulated intestinal fluid (mouse intestinal wash); format: in vitro ADME; conditions: 120 μL of 5 mM DMSO stock in 1080 μL, 37°C, 0-1440 min, HPLC-UV 220 nm, n = 3; for k: Simulated intestinal fluid = undiluted pooled CD-1 mouse duodenum/ileum wash in 50 mM phosphate buffer pH 6.63, 100 rpm, one phase decay, least square fit; for t1/2 (h) / t1/2 (min): Simulated intestinal fluid = undiluted pooled CD-1 mouse duodenum/ileum wash, phosphate buffer pH 6.63, one phase decay fit
Procedure: (§1) The samples were analyzed at 40°C on a Phenomenex Lichrosorb RP8 C8 column (4.0 mm × 250 mm, 5 μm), using the gradient elution method on an Agilent HPLC system (Agilent Technologies, Cheadle, UK) equipped with an 1100 series degasser, quaternary pump, autosampler, and column heater, and attached to an Agilent 1200 series PDA detector and a 1250 series fluorescent detector. The flow rate was set at 1.2 mL min^-1, and the injection volume was set at 40 μL, while detection was performed at 220 nm. The mobile phase was a mixture of mobile phase A (0.1% TFA in water) and phase B (0.08% TFA in acetonitrile), and in the first 5 min, the mobile phase was an 8:2 ratio of A:B (v/v) and from 5 to 15 min the percentage of B was raised from 8:2 to 1:9 (v/v). Linear calibration curves were constructed for both peptides between 0.1–100 μg.mL^−1. The retention time for the human Lau–PTEN-PDZ, mouse Lau–PTEN-PDZ, human Myr–PTEN-PDZ, and mouse Myr–PTEN-PDZ was 12.03, 11.60, 13.68, and 13.91, respectively.
The duodenum and ileum were excised from 10 non-fasted CD-1 male mice (7 weeks-old: Charles River Laboratories) that were sacrificed with CO2. Each duodenum and ileum were washed with 6 ml of phosphate buffer (50 mM, pH 6.63), and all the washes were pooled prior to centrifugation at 4000 rpm for 15 min at 4°C (Heraeus Multifuge 3sf) ([7],[15]). The intestinal wash was removed and frozen at −80°C prior to using it in stability studies without further dilution. Peptides stocks (5 mM in DMSO) were prepared and maintained at −20°C prior to performing stability studies. A stock peptide solution (120 μL) was added to the diluted pre-warmed (37°C) intestinal wash (1080 μL) with agitation at 100 rpm (Grant Aqua Waterbath), and samples (80 μL) were taken at 0, 15, 30, 45, 60, 90, 120, 180, 240, 360 and 1440 min, and diluted with ice-cold glacial acetic acid (17.5 M): acetonitrile (5:95 v/v, 80 μL) to quench the enzyme activity. Samples were vortexed and left in −80°C at least overnight to maximize protein precipitation, and after vortexing again for 15 min and centrifuging, the supernatant was analyzed by HPLC as described above.

[2] = In vitro stability in 50% liver homogenate; format: in vitro ADME, mouse; conditions: 37°C; for k: 50% w/v CD-1 mouse liver homogenate in PBS pH 7.4, 120 μL of 5 mM DMSO stock in 1080 μL, 100 rpm, 0-1440 min; for k / t1/2 (h) / t1/2 (min): HPLC-UV 220 nm, one phase decay, least square fit, n = 3; for t1/2 (h) / t1/2 (min): 50% w/v mouse liver homogenate in PBS pH 7.4
Procedure: as §1
(§2) The liver and brain of the mice were excised from […] CD-1 male mice (7 weeks-old: Charles River Laboratories) sacrificed with CO2, and the tissue was frozen immediately with liquid nitrogen prior to storage at −80°C. The liver and brain tissue were thawed and homogenized on ice in PBS (2 mL/g of tissue) using a glass 3 mL tissue homogenizer (20 strokes per sample), and the liver and brain homogenates were centrifuged (Heraeus Multifuge 3sf, Fisher Scientific, Basingstoke, UK) at 4300 g for 60 min at 4°C and at 3000 g for 20 min at 4°C, respectively. The supernatant was stored at −80°C, diluted 1:1 (v/v) with PBS (1x, pH 7.4), and used in stability studies. Peptides stocks (5 mM in DMSO) were prepared and maintained at −20°C prior to performing stability studies. These stock solutions (120 μL) were added to the diluted pre-warmed (37°C) liver or brain homogenate (50% v/v, 1080 μL) with agitation (100 rpm: Grant Aqua Waterbath), and samples (80 μL) were taken at 0, 5, 10, 15, 30, 45, 60, 90, 120, 180, 240, 360 and 1440 min, and diluted with ice-cold acetonitrile (80 μL). Samples were vortexed and left at −80°C at least overnight to allow for maximum protein precipitation, the samples were vortexed again for 15 min, centrifuged and the supernatant was analyzed by HPLC as described above.
(§3) The total protein concentration in the homogenates was determined using the Bradford protein assay ([7],[15]) and BSA as a standard. Ten stock solutions of BSA were prepared in PBS between 0.1–1 mg mL^−1, and 40 μL of each of the diluted stocks were added to 1.2 mL of Bradford reagent and incubated at room temperature for 5 min. The absorbance was recorded at 595 nm using a Multiskan GO spectrophotometer and the SkanIt software (Thermo Scientific, Paisley, UK). A linear calibration curve was obtained in this range that was used to extrapolate the protein content of 1:100 v/v stock solutions of 50% mouse plasma, liver, and brain homogenates diluted in PBS.

[3] = In vitro stability in 50% v/v mouse plasma; format: in vitro ADME; conditions: 37°C, HPLC-UV 220 nm, one phase decay, least square fit, n = 3; for k: 50% v/v CD-1 mouse plasma (K3 EDTA) in PBS, 120 μL of 5 mM DMSO stock in 1080 μL, 100 rpm, 0-1440 min
Procedure: CD-1 male mice (7 weeks old: Charles River Laboratories) were sacrificed with CO2, and blood was collected in K3E EDTA spray-coated vacutainers and kept on ice prior to centrifugation at 3000 rpm for 15 min at 4°C (Heraeus Multifuge 3sf). Mouse plasma samples were stored at −80°C before use in stability studies. Study was approved by the University of Portsmouth Animal Welfare and Ethical Review Body (UoP AWERB body, 817).
For testing, the plasma was diluted (1:1) in PBS without phenol and pre-warmed to 37°C. Peptides stocks (5 mM in DMSO) were prepared and maintained at −20°C before performing the stability studies. Peptide stock solutions (120 μL) were added to pre-warmed diluted plasma (50% v/v, 1080 μL) and maintained at 37°C with agitation (100 rpm: Grant Aqua Waterbath, Royston, UK). Samples (80 μL) were taken at 0, 3, 6,9, 15, 30, 45, 60, 90, 120, 180, 240, 360 and 1440 min, diluted with ice-cold acetonitrile (80 μL), vortexed and left in −80°C at least overnight to favor maximal protein precipitation. The samples were then vortexed again for 15 min (SciQuip microplate shaker, Shropshire, UK), centrifuged in a Thermo Sci Jouan B4i Centrifuge (Hemel Hampstead, UK) and the supernatant was transferred to an HPLC vial (200 μL).
as §1

[4] = In vitro stability in 50% brain homogenate; format: in vitro ADME, mouse; conditions: 37°C, HPLC-UV 220 nm, one phase decay, least square fit, n = 3; for k: 50% w/v CD-1 mouse brain homogenate in PBS pH 7.4, 120 μL of 5 mM DMSO stock in 1080 μL, 100 rpm, 0-1440 min; for t1/2 (h) / t1/2 (min): 50% w/v mouse brain homogenate in PBS pH 7.4
Procedure: as §1, §2, §3

[5] = Permeability across in vitro 2D human blood-brain barrier model; format: in vitro ADME
[6] = read-out: Papp0-4h, Experiment 2
[7] = 50% w/v mouse liver homogenate, two phase decay fit, fast phase
[8] = 50% w/v mouse liver homogenate, two phase decay fit, slow phase

SMILES | k [1] [h⁻¹] | t1/2 (h) [1] [h] | t1/2 (min) [1] [min] | k [2] [h⁻¹] | t1/2 (h) [2] [h] | t1/2 (min) [2] [min] | k [3] [h⁻¹] | t1/2 (h) ([3]; 50% v/v mouse plasma in PBS) | t1/2 (min) ([3]; 50% v/v mouse plasma in PBS) | k [4] [h⁻¹] | t1/2 (h) [4] [h] | t1/2 (min) [4] [min] | Papp A→B at 100 μM [5, 6] [×10⁻⁶ cm/s] | also measured
CCCCCCCCCCCC(=O)N[C@@H](CCC(N)=O)C(=O)N[C@@H](Cc1c[nH]cn1)C(=O)N[C@H](C(=O)N[C@@H](CCC(N)=O)C(=O)N[C@H](C(=O)N[C@H](C(=O)N[C@@H](CCCCN)C(=O)N[C@H](C(=O)O)C(C)C)[C@@H](C)O)[C@@H](C)CC)[C@@H](C)O [Human Lau-PTEN-PDZ] (HELM PEPTIDE1{[CCCCCCCCCCCC(=O)[*:2]].Q.H.T.Q.I.T.K.V}$$$$V2.0) | 0.23 | 2.96 | 177.96 | 1.15 | 0.60 | 36.28 | 4.60 | 0.15 | 9.05 | 1.90 | 0.36 | 21.87 | 5.57 ± 0.29 | –
CCCCCCCCCCCC(=O)N[C@@H](CCC(N)=O)C(=O)N[C@@H](Cc1c[nH]cn1)C(=O)N[C@@H](CO)C(=O)N[C@@H](CCC(N)=O)C(=O)N[C@H](C(=O)N[C@H](C(=O)N[C@@H](CCCCN)C(=O)N[C@H](C(=O)O)C(C)C)[C@@H](C)O)[C@@H](C)CC [Mouse Lau-PTEN-PDZ] (HELM PEPTIDE1{[CCCCCCCCCCCC(=O)[*:2]].Q.H.S.Q.I.T.K.V}$$$$V2.0) | 2.34 | 0.30 | 17.77 | 0.73 | 0.95 | 57.14 | 0.12 | 5.86 | 351.84 | 3.48 | 0.20 | 11.95 | – | half-life at 0.5 mM ([3]; male, CD-1, 50% v/v mouse plasma (K3 EDTA) diluted in PBS, 50% v/v mouse plasma in PBS): 354 min; Papp A→B at 100 μM ([5]; read-out: Papp0-4h, Experiment 1): 6.28 ± 1.85 ×10⁻⁶ cm/s
CCCCCCCCCCCCCC(=O)N[C@@H](CCC(N)=O)C(=O)N[C@@H](Cc1c[nH]cn1)C(=O)N[C@H](C(=O)N[C@@H](CCC(N)=O)C(=O)N[C@H](C(=O)N[C@H](C(=O)N[C@@H](CCCCN)C(=O)N[C@H](C(=O)O)C(C)C)[C@@H](C)O)[C@@H](C)CC)[C@@H](C)O [Human Myr-PTEN-PDZ] (HELM PEPTIDE1{[CCCCCCCCCCCCCC(=O)[*:2]].Q.H.T.Q.I.T.K.V}$$$$V2.0) | 0.25 | – | – | 0.04 | 18.5 | 1110 | 6.17 | 0.11 | 6.74 | 4.20 | 0.16 | 9.89 | 3.77 ± 0.39 | k (fast) [2, 7]: 3.05 h⁻¹; t1/2 (h) fast [2, 7]: 0.23 h; t1/2 (min) fast [2, 7]: 13.63 min; k (slow) [2, 8]: 0.0005 h⁻¹; t1/2 (h) slow [2, 8]: 1510 h; t1/2 (min) slow [2, 8]: 90,600 min
